Data on two compounds can be found in article PMC8213057, “Targeting ALK2: An Open Science Approach to Developing Therapeutics for the Treatment of Diffuse Intrinsic Pontine Glioma” (Journal of Medicinal Chemistry, 2020).

One experiment deals with T1, DDR2 (Homo sapiens, UniProt Q16832).
T1 sequence (Q16832 22-855): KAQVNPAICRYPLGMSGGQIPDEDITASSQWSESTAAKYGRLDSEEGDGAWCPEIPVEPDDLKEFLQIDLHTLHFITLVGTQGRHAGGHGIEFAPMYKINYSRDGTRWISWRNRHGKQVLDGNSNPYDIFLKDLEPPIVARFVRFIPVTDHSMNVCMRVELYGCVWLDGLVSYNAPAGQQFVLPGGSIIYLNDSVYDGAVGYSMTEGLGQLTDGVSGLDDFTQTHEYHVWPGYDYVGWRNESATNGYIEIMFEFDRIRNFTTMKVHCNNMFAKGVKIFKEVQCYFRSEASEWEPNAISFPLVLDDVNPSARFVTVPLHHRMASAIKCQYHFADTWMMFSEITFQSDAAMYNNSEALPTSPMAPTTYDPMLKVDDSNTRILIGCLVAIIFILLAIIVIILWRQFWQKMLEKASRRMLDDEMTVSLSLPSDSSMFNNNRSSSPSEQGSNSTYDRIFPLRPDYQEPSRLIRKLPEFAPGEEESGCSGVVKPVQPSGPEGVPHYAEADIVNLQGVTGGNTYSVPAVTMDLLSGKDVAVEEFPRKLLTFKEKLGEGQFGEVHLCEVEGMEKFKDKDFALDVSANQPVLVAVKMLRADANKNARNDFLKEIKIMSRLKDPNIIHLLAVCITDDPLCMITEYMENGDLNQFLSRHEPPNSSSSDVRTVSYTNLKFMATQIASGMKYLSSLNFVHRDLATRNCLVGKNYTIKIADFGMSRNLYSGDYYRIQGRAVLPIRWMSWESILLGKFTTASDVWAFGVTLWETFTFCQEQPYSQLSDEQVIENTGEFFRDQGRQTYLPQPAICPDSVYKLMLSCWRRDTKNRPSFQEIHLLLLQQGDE
To be noted: 1 μM; Run 1, Run 2.

In the next experiment the target is T2, LKB1 (Homo sapiens, UniProt Q15831).
T2 sequence (Q15831 1-433): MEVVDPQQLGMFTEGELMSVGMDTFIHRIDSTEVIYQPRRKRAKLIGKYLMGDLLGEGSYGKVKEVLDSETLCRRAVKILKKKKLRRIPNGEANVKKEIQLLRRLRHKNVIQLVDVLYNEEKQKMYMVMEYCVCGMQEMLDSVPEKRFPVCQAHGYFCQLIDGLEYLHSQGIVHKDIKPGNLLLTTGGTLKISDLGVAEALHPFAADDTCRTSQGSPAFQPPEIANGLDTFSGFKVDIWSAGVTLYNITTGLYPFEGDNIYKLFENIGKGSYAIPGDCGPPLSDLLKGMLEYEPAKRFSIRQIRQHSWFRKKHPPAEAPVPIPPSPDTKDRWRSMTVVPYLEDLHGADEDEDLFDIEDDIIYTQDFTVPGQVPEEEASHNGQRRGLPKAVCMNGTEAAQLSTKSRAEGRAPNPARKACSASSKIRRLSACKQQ
T2 sequence (Q7RTN6 1-431 partner): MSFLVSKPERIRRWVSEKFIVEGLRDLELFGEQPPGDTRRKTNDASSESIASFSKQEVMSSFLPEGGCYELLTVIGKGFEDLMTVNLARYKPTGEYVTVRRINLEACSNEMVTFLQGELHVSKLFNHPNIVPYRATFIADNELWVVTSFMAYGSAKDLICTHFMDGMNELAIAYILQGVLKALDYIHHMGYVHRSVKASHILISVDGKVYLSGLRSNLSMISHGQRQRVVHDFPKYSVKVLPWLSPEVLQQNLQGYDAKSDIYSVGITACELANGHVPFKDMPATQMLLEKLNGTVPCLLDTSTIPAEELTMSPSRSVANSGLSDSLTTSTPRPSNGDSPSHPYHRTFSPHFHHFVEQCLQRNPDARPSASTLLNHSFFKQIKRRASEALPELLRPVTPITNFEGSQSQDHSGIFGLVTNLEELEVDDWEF
T2 sequence (Q9Y376 1-341 partner): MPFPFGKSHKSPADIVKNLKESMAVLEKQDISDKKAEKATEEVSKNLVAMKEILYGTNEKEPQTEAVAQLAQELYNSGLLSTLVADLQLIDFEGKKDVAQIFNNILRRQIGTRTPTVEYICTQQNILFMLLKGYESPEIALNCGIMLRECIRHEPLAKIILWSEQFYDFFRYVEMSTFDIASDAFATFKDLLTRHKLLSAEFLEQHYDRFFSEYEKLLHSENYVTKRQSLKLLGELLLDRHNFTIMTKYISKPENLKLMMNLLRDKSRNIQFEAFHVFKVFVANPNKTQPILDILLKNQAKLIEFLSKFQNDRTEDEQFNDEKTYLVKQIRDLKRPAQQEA
To be noted: 1 μM; Run 1, Run 2.

In the next experiment the target is MARK3 (Homo sapiens, UniProt P27448). To be noted: 1 μM; Run 1, Run 2.
MARK3, sequence (P27448 whole entry): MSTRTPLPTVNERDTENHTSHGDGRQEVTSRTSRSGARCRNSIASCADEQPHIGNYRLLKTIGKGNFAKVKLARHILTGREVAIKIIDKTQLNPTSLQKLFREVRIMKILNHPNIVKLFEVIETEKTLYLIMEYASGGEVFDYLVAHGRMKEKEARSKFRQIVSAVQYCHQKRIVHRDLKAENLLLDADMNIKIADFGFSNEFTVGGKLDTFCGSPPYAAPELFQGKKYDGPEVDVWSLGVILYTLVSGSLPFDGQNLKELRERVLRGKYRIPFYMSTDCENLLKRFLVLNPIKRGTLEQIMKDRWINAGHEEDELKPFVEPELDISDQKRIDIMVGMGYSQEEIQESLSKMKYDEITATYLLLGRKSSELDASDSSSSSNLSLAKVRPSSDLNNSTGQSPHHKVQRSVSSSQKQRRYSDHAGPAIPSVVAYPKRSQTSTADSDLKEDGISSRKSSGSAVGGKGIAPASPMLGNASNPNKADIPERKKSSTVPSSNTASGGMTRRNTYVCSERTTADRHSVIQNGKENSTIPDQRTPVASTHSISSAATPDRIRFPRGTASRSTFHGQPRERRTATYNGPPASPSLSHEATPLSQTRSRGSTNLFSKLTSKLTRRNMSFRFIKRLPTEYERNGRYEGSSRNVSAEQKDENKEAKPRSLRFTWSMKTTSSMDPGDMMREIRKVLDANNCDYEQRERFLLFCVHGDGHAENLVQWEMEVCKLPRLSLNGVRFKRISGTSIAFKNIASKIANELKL
The target of a further experiment is CDK16/cyclin Y (PCTAIRE) (Homo sapiens, UniProt Q00536). The experiment is described as follows: biochemical. To be noted: read-out: % enzyme activity, 1 μM; Run 1, Run 2.
CDK16/cyclin Y (PCTAIRE), sequence (Q00536 whole entry): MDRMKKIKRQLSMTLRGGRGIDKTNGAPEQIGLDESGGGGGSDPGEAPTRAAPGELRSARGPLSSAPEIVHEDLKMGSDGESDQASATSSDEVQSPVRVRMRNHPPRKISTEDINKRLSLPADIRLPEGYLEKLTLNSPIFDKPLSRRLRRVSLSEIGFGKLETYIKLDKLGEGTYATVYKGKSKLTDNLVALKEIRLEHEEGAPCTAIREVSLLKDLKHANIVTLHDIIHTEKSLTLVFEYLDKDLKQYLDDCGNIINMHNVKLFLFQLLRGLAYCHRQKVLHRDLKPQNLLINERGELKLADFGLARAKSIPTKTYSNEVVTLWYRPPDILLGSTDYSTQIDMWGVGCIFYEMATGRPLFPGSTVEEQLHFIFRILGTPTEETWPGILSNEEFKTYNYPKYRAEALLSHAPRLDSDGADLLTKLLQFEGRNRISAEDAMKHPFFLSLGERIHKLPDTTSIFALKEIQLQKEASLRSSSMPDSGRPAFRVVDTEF
CDK16/cyclin Y (PCTAIRE), sequence (Q8ND76 whole entry partner): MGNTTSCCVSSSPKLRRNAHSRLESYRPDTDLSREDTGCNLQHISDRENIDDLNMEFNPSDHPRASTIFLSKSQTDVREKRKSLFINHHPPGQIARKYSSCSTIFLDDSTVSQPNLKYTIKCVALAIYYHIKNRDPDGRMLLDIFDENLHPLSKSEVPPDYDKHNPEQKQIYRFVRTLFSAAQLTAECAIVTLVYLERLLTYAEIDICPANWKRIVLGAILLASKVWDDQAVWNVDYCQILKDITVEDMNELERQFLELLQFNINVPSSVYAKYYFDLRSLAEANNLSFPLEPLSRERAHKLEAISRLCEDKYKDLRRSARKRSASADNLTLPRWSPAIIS
In a further experiment the target is CDK7/cyclin H (Homo sapiens, UniProt P50613). The experiment is described as follows: biochemical. The note with it: read-out: % enzyme activity, 1 μM; Run 1, Run 2.
CDK7/cyclin H, sequence (P50613 whole entry): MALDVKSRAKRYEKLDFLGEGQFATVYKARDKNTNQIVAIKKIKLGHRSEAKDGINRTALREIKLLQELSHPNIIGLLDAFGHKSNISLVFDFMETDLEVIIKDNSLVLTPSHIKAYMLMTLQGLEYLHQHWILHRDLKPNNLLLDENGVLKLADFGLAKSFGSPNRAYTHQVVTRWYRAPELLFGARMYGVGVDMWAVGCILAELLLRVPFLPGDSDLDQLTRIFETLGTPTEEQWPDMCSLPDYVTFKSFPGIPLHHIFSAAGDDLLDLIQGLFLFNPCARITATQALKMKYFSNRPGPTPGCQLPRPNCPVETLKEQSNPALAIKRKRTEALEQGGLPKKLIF
CDK7/cyclin H, sequence (P51946 whole entry partner): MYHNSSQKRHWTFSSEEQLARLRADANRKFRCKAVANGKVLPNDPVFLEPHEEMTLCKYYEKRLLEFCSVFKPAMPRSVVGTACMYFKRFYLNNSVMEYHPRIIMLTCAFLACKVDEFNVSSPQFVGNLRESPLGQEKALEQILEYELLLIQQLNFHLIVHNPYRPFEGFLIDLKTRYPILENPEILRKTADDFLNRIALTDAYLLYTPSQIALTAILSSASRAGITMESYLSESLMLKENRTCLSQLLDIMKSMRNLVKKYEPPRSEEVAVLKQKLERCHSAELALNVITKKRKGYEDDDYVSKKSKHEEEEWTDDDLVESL
CDK7/cyclin H, sequence (P51948 whole entry partner): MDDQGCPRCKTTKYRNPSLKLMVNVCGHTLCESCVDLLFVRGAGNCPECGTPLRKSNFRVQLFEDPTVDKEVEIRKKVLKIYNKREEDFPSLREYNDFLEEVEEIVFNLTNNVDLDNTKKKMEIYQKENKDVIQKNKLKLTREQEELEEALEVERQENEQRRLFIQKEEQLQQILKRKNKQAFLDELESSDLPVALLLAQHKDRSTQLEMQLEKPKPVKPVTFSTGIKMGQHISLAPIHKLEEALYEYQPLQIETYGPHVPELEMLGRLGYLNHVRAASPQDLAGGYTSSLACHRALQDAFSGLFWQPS
The next experiment addresses T3, MKK4 (Homo sapiens, UniProt P45985).
T3 sequence (P45985 1-399): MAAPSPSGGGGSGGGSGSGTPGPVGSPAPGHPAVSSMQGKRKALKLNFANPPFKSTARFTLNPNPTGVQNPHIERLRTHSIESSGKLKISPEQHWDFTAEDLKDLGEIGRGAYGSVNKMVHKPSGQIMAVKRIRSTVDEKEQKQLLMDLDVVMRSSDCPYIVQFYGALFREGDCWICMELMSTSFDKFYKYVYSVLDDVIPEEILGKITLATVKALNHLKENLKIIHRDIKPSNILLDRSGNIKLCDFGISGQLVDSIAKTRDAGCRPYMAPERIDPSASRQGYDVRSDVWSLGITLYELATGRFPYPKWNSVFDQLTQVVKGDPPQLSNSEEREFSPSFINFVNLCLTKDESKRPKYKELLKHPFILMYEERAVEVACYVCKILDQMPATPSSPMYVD
Nature of the experiment: biochemical. The note with it: read-out: % enzyme activity, 1 μM; Run 1, Run 2.

The target in the next experiment is PIM3 (Homo sapiens, UniProt Q86V86). The experiment is described as follows: biochemical. To be noted: read-out: % enzyme activity, 1 μM; Run 1, Run 2.
The target of another experiment is ROCK1 (Homo sapiens, UniProt Q13464). The experiment is described as follows: biochemical. To be noted: read-out: % enzyme activity, 1 μM; Run 1, Run 2.
ROCK1, sequence (Q13464 whole entry): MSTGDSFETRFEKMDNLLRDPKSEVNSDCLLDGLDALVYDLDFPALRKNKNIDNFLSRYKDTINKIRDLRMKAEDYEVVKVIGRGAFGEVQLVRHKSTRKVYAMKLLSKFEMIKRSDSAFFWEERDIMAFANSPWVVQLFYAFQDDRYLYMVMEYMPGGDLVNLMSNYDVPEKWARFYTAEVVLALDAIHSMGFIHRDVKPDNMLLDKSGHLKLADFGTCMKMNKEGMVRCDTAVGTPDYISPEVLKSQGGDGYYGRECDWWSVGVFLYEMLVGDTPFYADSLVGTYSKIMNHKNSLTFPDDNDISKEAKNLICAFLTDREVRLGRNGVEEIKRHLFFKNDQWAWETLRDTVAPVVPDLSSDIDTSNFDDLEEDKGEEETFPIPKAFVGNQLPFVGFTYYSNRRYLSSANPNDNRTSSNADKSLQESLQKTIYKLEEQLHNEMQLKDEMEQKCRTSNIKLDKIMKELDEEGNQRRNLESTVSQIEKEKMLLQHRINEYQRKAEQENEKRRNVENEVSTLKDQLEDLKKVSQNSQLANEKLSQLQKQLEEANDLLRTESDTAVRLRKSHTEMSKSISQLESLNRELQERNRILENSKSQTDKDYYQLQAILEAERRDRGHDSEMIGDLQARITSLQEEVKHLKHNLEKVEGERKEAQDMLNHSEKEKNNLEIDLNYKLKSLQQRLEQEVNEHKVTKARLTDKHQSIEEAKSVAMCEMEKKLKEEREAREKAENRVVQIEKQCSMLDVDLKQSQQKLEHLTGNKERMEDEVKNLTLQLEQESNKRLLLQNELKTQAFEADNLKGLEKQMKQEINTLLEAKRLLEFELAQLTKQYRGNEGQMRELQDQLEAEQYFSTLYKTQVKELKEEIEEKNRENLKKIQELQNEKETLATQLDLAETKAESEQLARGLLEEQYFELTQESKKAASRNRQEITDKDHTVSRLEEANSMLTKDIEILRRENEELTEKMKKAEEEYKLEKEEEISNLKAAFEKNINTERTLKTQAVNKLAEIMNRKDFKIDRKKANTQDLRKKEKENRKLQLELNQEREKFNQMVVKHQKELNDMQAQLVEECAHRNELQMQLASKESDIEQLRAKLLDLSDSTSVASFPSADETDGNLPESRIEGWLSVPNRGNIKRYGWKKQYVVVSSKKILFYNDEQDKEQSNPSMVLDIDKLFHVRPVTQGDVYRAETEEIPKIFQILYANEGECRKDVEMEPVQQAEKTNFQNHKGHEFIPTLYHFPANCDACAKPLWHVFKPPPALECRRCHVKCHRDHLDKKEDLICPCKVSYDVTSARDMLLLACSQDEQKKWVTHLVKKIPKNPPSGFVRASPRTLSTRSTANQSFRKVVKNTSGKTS

Turning to `COc1cc(-c2cncc(-c3ccc(N4C[C@@H](C)N(C)[C@@H](C)C4)cc3)c2C)cc(F)c1C(N)=O` [Compound 26c, 2-Fluoro-6-methoxy-4-(4-methyl-5-(4-((3R,5S)-3,4,5-trimethylpiperazin-1-yl)phenyl)pyridin-3-yl)benzamide], the “% enzyme activity” value at DDR2 came out at 92.27%; on LKB1, 90.86%; at MARK3, 93.66%. Besides, the remaining activity at 1 µM on CDK16/cyclin Y (PCTAIRE) was found to be 91.6%; on CDK7/cyclin H, 96.1%; at MKK4, 94.6%; on PIM3, 107%; on ROCK1, 94.7%.
As to `COc1cc(-c2cncc(-c3ccc(N4CCN(C)CC4)cc3)c2C)cc(F)c1C(N)=O` [Compound 26a, 2-Fluoro-6-methoxy-4-(4-methyl-5-(4-(4-methylpiperazin-1-yl)phenyl)pyridin-3-yl)benzamide], the “% enzyme activity” value on DDR2 turned out to be 96.68%; on LKB1, 79.50%; at MARK3, 82.91%. In addition, the remaining activity at 1 µM is 92.8% at CDK16/cyclin Y (PCTAIRE); 97% on CDK7/cyclin H; 101% on MKK4; 100% on PIM3; 95% on ROCK1.
